Tests used:
HeLa cells = experiment: Cell imaging of living HeLa cells with AIE dots; format: cell-based; details: dye as AIE dots, 12 h, 37° C.
Method: Generally, 1 mg of the AIEgen and 5 mg of DSPE-PEG-Biotin were dissolved in 1 mL of chloroform. Subsequently, 9 mL of Milli-Q water was added into the chloroform solution under sonication for 10 minutes at room temperature using a microtip probe sonicator with an 18 W output (XL2000, Misonix Incorp., USA). The mixture was stirred in the nitrogen flow overnight until the chloroform was completely evaporated. A clear solution was obtained, and the solution was filtered through a 0.45 μm microfilter to result in the formation of AIE dots.
Cell Culture: HeLa cells were cultured in MEM containing 10% FBS and antibiotics (100 units/mL penicillin and 100 µg/mL streptomycin) in a 5% CO2 humidity incubator at 37° C. All culture media were supplemented with 10% heat-inactivated FBS, 100 units/mL penicillin, and 100 μg/mL streptomycin. Before the experiment, the cells were precultured until confluence was reached.
Cell Imaging: HeLa cells were grown overnight on a 35 mm petri dish with a cover slip at 37° C. After removal of the medium, the adherent cells were washed twice with 1× phosphate buffered saline (PBS) buffer. The AIE dots were then added to the chamber. After incubation for 12 hours, the cells were washed three times with 1×PBS buffer. The cells were imaged on a Zeiss laser scanning confocal microscope and analyzed using ZEN 2009 software.

Two-photon absorption = format: physicochemical
Source text: The TPA spectrum of AIE dots in water with the wavelength range from 800-1000 nm at 20 nm intervals was investigated. […] Moreover, a 900 nm fs laser expects to have deeper penetration and better focusing capability than the commonly used 770-860 nm Ti:Sapphire fs laser. Therefore, the TTS dots are a promising candidate for two-photon deep-tissue in vivo bioimaging.

[1] = Photoluminescence (emission) spectra in solvents, THF/water aggregates, powder and dots; format: physicochemical
Source text: The photoluminescence (PL) spectrum of TTS (FIG. 66) is basically a flat line parallel to the abscissa in pure THF. The spectral pattern remains unchanged at water content up to 40%. Afterwards, the PL intensity increases dramatically. The higher the water fraction, the stronger the emission intensity. The emission peak reaches to ˜636 nm. The emission intensity reaches its maximum value at 90% water content, which is 170-fold higher than that in pure THF
When the solvent polarity was increased from Tol to NMP, the emission of TTB, TTA, and TTS are red-shifted with an emission quenching effect. […] However, compared with TTB molecule, TTA and TTS molecules are more sensitive to solvent polarity. TTA and TTS are emissive in Tol, weak emissive in DO and nonemissive in THF with medium polarity. In contrast, TTB is highly emissive in Tol, DO, and THF, and even in the high polarity solvent NMP, TTB is still emissive observed by the naked eye. […] It is probable that even in THF with medium polarity, the conformation of the TTA or TTS becomes twisted and the charge becomes separated.
In pure THF solution, it is non-emissive. The PL intensity remains unchanged at water fraction fw<50%. Afterwards, the PL intensity reaches its maximum value at 90% water content with emission peak at ˜635 nm. Thus, both TTS and TTA are AIE-active.
(§1) Due to the higher ΦF and much better processability of TTS, it was chosen for further biological applications. For easy dispersion of the highly hydrophobic TTS molecules in an aqueous environment, the TTS dots were formulated through a simple procedure by a nanoprecipitation method with amphiphilic and biocompatible 1,2-distearoyl-sn-glycero-3-phosphoethanolamine-N [methoxy(polyethyleneglycol)-2000] (DSPE-PEG 2000) as the encapsulation matrix (FIG. 70). […] TTS dots have an absorption maxima at 497 nm in aqueous media, which fits well with the commercial laser excitation at 488 nm. The strong emission of TTS dots (FIG. 71B) peaks at the red region (630 nm) and tails to the near-infrared region (820 nm). It is noteworthy that the Stokes shift of the TTS dots is big enough (>130 nm) to solve the serious problem of the self-quenching effect common in conventional organic dye molecules.

[2] = Absorption spectra in solvents / aqueous media; format: physicochemical
Source text: With introduction of extra arylamine units to the TTB molecule, the absorption peak of TTS is slightly red-shifted due to longer electronic conjugation.
as §1

[3] = Energy band gap and HOMO/LUMO from absorption onset and onset oxidation potential; format: physicochemical
[4] = Fluorescence quantum yield and lifetime; format: physicochemical
[5] = in methanol; cited from earlier work
[6] = aggregate, excitation 900 nm laser

## COc1ccc(C(=C(c2ccccc2)c2ccc(-c3sc(-c4ccc(C(=C(c5ccc(OC)cc5)c5ccc(OC)cc5)c5ccccc5)cc4)c4nc(-c5ccccc5)c(-c5ccccc5)nc34)cc2)c2ccc(OC)cc2)cc1 [MTPE-TP, 5,7-bis(4-(2,2-bis(4-methoxyphenyl)-1-phenylvinyl)phenyl)-2,3-diphenylthieno[3,4-b′]pyrazine]
HeLa cells
  fluorescence in cells: intense red fluorescence was observed in the cellular cytoplasms

## c1ccc(-c2nc3c(-c4ccc(N(c5ccccc5)c5cccc6ccccc56)cc4)c4nsnc4c(-c4ccc(N(c5ccccc5)c5cccc6ccccc56)cc4)c3nc2-c2ccccc2)cc1 [NPB-TQ, N,N′-((6,7-diphenyl-[1,2,5]thiadiazolo[3,4-g]quinoxaline-4,9-diyl)bis(4,1-phenylene))bis(N-phenylnaphthalen-1-amine)]
Two-photon absorption
  two-photon absorption properties: excellent two-photon absorption properties

## CCCCCCCCN1c2ccc(-c3ccc(-c4ccc(N(c5ccccc5)c5ccccc5)cc4)c4nsnc34)cc2Sc2cc(-c3ccc(-c4ccc(N(c5ccccc5)c5ccccc5)cc4)c4nsnc34)ccc21 [PTZ-BT-TPA, 4,4′-((10-octyl-10H-phenothiazine-3,7-diyl)bis(benzo[c][1,2,5]thiadiazole-7,4-diyl))bis(N,N-diphenylaniline)]
Two-photon absorption
  two-photon absorption properties: excellent two-photon absorption properties
HeLa cells
  fluorescence in cells: intense red fluorescence was observed in the cellular cytoplasms

## c1ccc(C(=C(c2ccccc2)c2ccc(-c3ccc(N(c4ccc(-c5ccc(C(=C(c6ccccc6)c6ccccc6)c6ccccc6)cc5)cc4)c4ccc(-c5sc(-c6ccc(N(c7ccc(-c8ccc(C(=C(c9ccccc9)c9ccccc9)c9ccccc9)cc8)cc7)c7ccc(-c8ccc(C(=C(c9ccccc9)c9ccccc9)c9ccccc9)cc8)cc7)cc6)c6c5N=S=N6)cc4)cc3)cc2)c2ccccc2)cc1 [TPE-TPA-TT, N,N′-(thieno[3,4-b][1,2,5]thiadiazole-5,7-diylbis(4,1-phenylene))bis(4′-(1,2,2-triphenylvinyl)-N-(4′-(1,2,2-triphenylvinyl)-[1,1′-biphenyl]-4-yl)-[1,1′-biphenyl]-4-amine)]
Two-photon absorption
  two-photon absorption properties: excellent two-photon absorption properties

## c1ccc(C(=C(c2ccccc2)c2ccc(N(c3ccc(-c4ccc(-c5ccc(N(c6ccc(C(=C(c7ccccc7)c7ccccc7)c7ccccc7)cc6)c6ccc(N(c7ccccc7)c7ccccc7)cc6)cc5)c5nsnc45)cc3)c3ccc(N(c4ccccc4)c4ccccc4)cc3)cc2)c2ccccc2)cc1 [TTS]
[1]; THF solution
  λem emission maximum soln: 641
[1]; THF/water mixture (1:9 by volume)
  λem emission maximum aggr: 636
[1]; THF/water, 10 μM, excitation 480 nm
  emission intensity at 90% water content relative to pure THF: 170 fold
[1]; aggregate state, high water content (90%)
  emission peak in THF/water mixture: ~636 nm
[1]; solid powder
  λem emission maximum powder: 636
[1]; solvent DO, excitation 480 nm
  λem emission maximum: 640 nm
[1]; solvent Tol, excitation 480 nm
  λem emission maximum: 623 nm
[2]; THF (Table 2)
  λab absorption maximum in THF: 481 nm
[2]; solvent DO
  λab absorption maximum: 478 nm
[2]; solvent NMP
  λab absorption maximum: 484 nm
[2]; solvent THF
  λab absorption maximum: 481 nm
[2]; solvent Tol
  λab absorption maximum: 484 nm
Two-photon absorption; [6]
  maximum two-photon absorption cross section: 310 GM
[3]; LUMO = HOMO + Eg
  LUMO: −2.84 eV
[3]; calculated from the onset of the absorption spectrum
  Eg energy band gap: 2.21 eV
[3]; calculated from the onset oxidation potential
  HOMO: −5.05 eV
[4]; THF solution, in parentheses
  fluorescence quantum yield ΦF soln: (0.1) %
[4]; [6]
  quantum efficiency relative to rhodamine B: 38.5%
[4]; solid powder
  τ fluorescence lifetime of solid powders: 1.86 ns
[4]; solid powder, in parentheses
  solid powders fluorescence quantum yield ΦF: (34.1) %

## CCN(CC)c1ccc2c(-c3ccccc3C(=O)O)c3ccc(=[N+](CC)CC)cc-3oc2c1.[Cl-] [rhodamine B]
[5]
  ΦF of reference: 41.9%

From US12162889B2, “Luminogens for biological applications” (THE HONG KONG UNIVERSITY OF SCIENCE AND TECHNOLOGY, priority 2016, dated 2024)
